The term IC50 denotes the concentration that gives 50% inhibition.

Molecules are shown by their SMILES. Where only a bound is given, the exact number is not on record here.

For this experiment, the target named is T1, GST-JAK2(808-1132) (Homo sapiens, UniProt O60674).
T1 construct: GST-JAK2(808-1132) is purchased from Invitrogen; purchased Invitrogen (Carlsbad, USA) #4288
T1 sequence (O60674 808-1132): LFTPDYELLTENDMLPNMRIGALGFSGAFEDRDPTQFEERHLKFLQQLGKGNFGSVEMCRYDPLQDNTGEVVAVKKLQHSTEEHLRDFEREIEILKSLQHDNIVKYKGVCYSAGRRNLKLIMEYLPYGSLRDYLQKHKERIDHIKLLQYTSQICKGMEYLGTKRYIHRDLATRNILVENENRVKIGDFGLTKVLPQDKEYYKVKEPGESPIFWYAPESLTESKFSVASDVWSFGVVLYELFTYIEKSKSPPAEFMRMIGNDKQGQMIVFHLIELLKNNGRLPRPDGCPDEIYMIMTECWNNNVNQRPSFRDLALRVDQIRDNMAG
As to the kind of experiment: EPK JAK/TYK-kinase family profiling assay (Caliper mobility shift), JAK2. Particulars: Caliper mobility shift assay of Example 187, 20 μM ATP, read-out: IC50 with Test in present Example. The experiment is classed as biochemical. The source says:
All four kinases of the JAK/TYK-kinase family are used as purified recombinant GST-fusion proteins, containing the active kinase domains. GST-JAK1(866-1154), GST-JAK3(811-1124), and GST-TYK2(888-1187) are expressed and purified by affinity chromatography. GST-JAK2(808-1132) is purchased from Invitrogen (Carlsbad, USA, #4288).
The kinase assays are based on the Caliper mobility shift assay using the LabChip 3000 systems. This technology is similar to capillary electrophoresis and uses charge driven separation of substrate and product in a microfluidic chip.
All kinase reactions are performed in 384 well microtiter plates in a total reaction volume of 18 μl. The assay plates are prepared with 0.1 μl per well of test compound in the appropriate test concentration, as described under the section “preparation of compound dilutions”. The reactions are started by combining 9 μl of substrate mix (consisting of peptide and ATP) with 9 μl of kinase dilution. The reactions are incubated for 60 minutes at 30° C. and stopped by adding 70 μl of stop buffer (100 mM Hepes, 5% DMSO, 0.1% Coating reagent, 10 mM EDTA, 0.015% Brij 35).
Fluorescently labeled synthetic peptides are used as substrates in all reactions. […] Specific assay conditions are described in Table 1:
The terminated reactions are transferred to a Caliper LabChip 3000 reader (Caliper Life Sciences, Mountain View, Calif., USA) and the turnover of each reaction is measured by determining the substrate/product ratio.
Test compounds are dissolved in DMSO (10 mM) and transferred into 1.4 mL flat bottom or V-shaped Matrix tubes carrying a unique 2D matrix chip by individual compound hubs. The numbers of these chips are distinctively linked to the individual compound identification numbers. The stock solutions are stored at −20° C. if not used immediately. For the test procedure the vials are defrosted and identified by a scanner whereby a working sheet is generated that guides the subsequent working steps.
Compound dilutions are made in 96 well plates. This format enabled the assay of maximally 40 individual test compounds at 8 concentrations (single points) including 4 reference compounds. The dilution protocol includes the production of pre-dilution plates, master plates and assay plates:
Pre-dilution plates: 96 polypropylene well plates are used as pre-dilution plates. A total of 4 pre-dilution plates are prepared including 10 test compounds each on the plate positions A1-A10, one standard compound at A11 and one DMSO control at A12. All dilution steps are done on a Hamilton STAR robot (Hamilton, Co., Reno, Nev., USA).
Master plates: 100 μL of individual compound dilutions including standard compound and controls of the 4 “pre-dilution plates” are transferred into a 384 “master plate” including the following concentrations 1,820, […], 182, 54.6, 18.2, 5.46, 1.82 and 0.546 μM, respectively in 90% of DMSO.
Assay plates: Identical assay plates are then prepared by pipetting 100 nL each of compound dilutions of the master plates into 384-well “assay plates”. In the following the compounds are mixed with 9 μL of assays components plus 9 μL enzyme corresponding to a 1:181 dilution steps enabling the final concentration of 10, 3.0, 1.0, 0.3, 0.1, 0.03, 0.01 and 0.003 μM, respectively. The preparation of the master plates are handled by the Matrix PlateMate Plus robot (Thermo Fisher Scientific, Handforth, Cheshire, United Kingdom) and replication of assay plates by the HummingBird robot (Genomic Solutions, Inc., Ann Arbor, Mich., USA).
For the compound `Cc1cc(Nc2nc3cccc(-c4ccc(CN5CCOCC5)c(F)c4)c3o2)ccc1C(=O)N(C)C` [Example 64, 4-[7-(3-Fluoro-4-morpholin-4-ylmethyl-phenyl)-benzooxazol-2-ylamino]-2,N,N-trimethyl-benzamide], the IC50 came to 4.2 nM. Next, `Cc1cc(Nc2nc3cccc(-c4cc(F)c(CN5CCS(=O)(=O)CC5)c(F)c4)c3o2)ccc1C(=O)N(C)C` [Example 65, 4-{7-[4-(1,1-Dioxo-thiomorpholin-4-ylmethyl)-3,5-difluoro-phenyl]-benzooxazol-2-ylamino}-2,N,N-trimethyl-benzamide]: 8.25 nM; `COCCN1CCN(c2ccc(Nc3nc4cccc(-c5ccc(C(=O)N6CCOCC6)c(C)c5)c4o3)cc2C)CC1` [Example 66, [4-(2-{4-[4-(2-Methoxy-ethyl)-piperazin-1-yl]-3-methyl-phenylamino}-benzooxazol-7-yl)-2-methyl-phenyl]-morpholin-4-yl-methanone]: 6.45 nM; `Cc1cc(Nc2nc3cccc(-c4ccc(CN5CCOCC5)c(F)c4)c3o2)ccc1C(=O)N1CCCC1` [Example 67, {4-[7-(3-Fluoro-4-morpholin-4-ylmethyl-phenyl)-benzooxazol-2-ylamino]-2-methyl-phenyl}-pyrrolidin-1-yl-methanone]: 14 nM. The value for `Cc1cc(Nc2nc3cccc(-c4cc(F)c(CN5CCOCC5)c(F)c4)c3o2)ccc1C(=O)N(C)C` [Example 68, 4-[7-(3,5-Difluoro-4-morpholin-4-ylmethyl-phenyl)-benzooxazol-2-ylamino]-2,N,N-trimethyl-benzamide] was 19 nM; that for `Cc1cc(Nc2nc3cccc(-c4ccc(C(=O)N5CCOCC5)cc4)c3o2)ccc1C(=O)N(C)C` [Example 69, 2,N,N-Trimethyl-4-{7-[4-(morpholine-4-carbonyl)-phenyl]-benzooxazol-2-ylamino}-benzamide] was 7.9 nM; that for `Cc1cc(Nc2nc3cccc(-c4ccc(CC(=O)N5CCOCC5)cc4)c3o2)ccc1C(=O)N(C)C` [Example 70, 2,N,N-Trimethyl-4-{7-[4-(2-morpholin-4-yl-2-oxo-ethyl)-phenyl]-benzooxazol-2-ylamino}-benzamide] was 6.2 nM. Next, `CN(C)C(=O)c1ccc(Nc2nc3cccc(-c4ccc(CS(C)(=O)=O)cc4)c3o2)cc1` [Example 71, 4-[7-(4-Methanesulfonylmethyl-phenyl)-benzooxazol-2-ylamino]-N,N-dimethyl-benzamide]: 15 nM; `Cc1cc(Nc2nc3cccc(-c4ccc(CC(=O)N5CCOCC5)cc4)c3o2)ccc1C(=O)N1CCN(C)CC1` [Example 72, 2-(4-{2-[3-Methyl-4-(4-methyl-piperazine-1-carbonyl)-phenylamino]-benzooxazol-7-yl}-phenyl)-1-morpholin-4-yl-ethanone]: 17 nM.

With `Cc1cc(Nc2nc3cccc(-c4ccc(CC(=O)N5CCOCC5)c(F)c4)c3o2)ccc1C(=O)N1CCN(C)CC1` [Example 73, 2-(2-Fluoro-4-{2-[3-methyl-4-(4-methyl-piperazine-1-carbonyl)-phenylamino]-benzooxazol-7-yl}-phenyl)-1-morpholin-4-yl-ethanone], the IC50 was 5.15 nM.

With `CN1CCN(c2ccc(Nc3nc4cccc(-c5ccc(CC(=O)N6CCOCC6)cc5)c4o3)cc2)CC1` [Example 74, 2-(4-{2-[4-(4-Methyl-piperazin-1-yl)-phenylamino]-benzooxazol-7-yl}-phenyl)-1-morpholin-4-yl-ethanone], the IC50 was 5 nM. The value for `CN1CCN(c2ccc(Nc3nc4cccc(-c5ccc(C(=O)N6CCOCC6)c(F)c5)c4o3)cc2)CC1` [Example 75, (2-Fluoro-4-{2-[4-(4-methyl-piperazin-1-yl)-phenylamino]-benzooxazol-7-yl}-phenyl)-morpholin-4-yl-methanone] was 6.5 nM; that for `Cc1cc(Nc2nc3cccc(-c4ccc(C(=O)N5CCOCC5)cc4F)c3o2)ccc1C(=O)N(C)C` [Example 76, 4-{7-[2-Fluoro-4-(morpholine-4-carbonyl)-phenyl]-benzooxazol-2-ylamino}-2,N,N-trimethyl-benzamide] was 13 nM; that for `Cc1cc(Nc2nc3cccc(-c4ccc(CC(=O)N5CCS(=O)(=O)CC5)cc4)c3o2)ccc1C(=O)N(C)C` [Example 77, 4-(7-{4-[2-(1,1-Dioxo-1lambda*6*-thiomorpholin-4-yl)-2-oxo-ethyl]-phenyl}-benzooxazol-2-ylamino)-2, N,N-trimethyl-benzamide] was 3.3 nM.

For the compound `Cc1cc(Nc2nc3cccc(-c4ccc(C(=O)N5CCOCC5)c(F)c4)c3o2)ccc1C(=O)N(C)C` [Example 78, 4-{7-[3-Fluoro-4-(morpholine-4-carbonyl)-phenyl]-benzooxazol-2-ylamino}-2, N,N-trimethyl-benzamide], the IC50 amounted to 4.5 nM. The value for `Cc1cc(Nc2nc3cccc(-c4ccc(CN5CCS(=O)(=O)CC5)cc4)c3o2)ccc1C(=O)N(C)C` [Example 79, 4-{7-[4-(1,1-Dioxo-1lambda*6*-thiomorpholin-4-ylmethyl)-phenyl]-benzooxazol-2-ylamino}-2,N,N-trimethyl-benzamide] was < 3 nM. In the case of `CN1CCN(c2ccc(Nc3nc4cccc(-c5ccc(C(=O)N6CCS(=O)(=O)CC6)c(F)c5)c4o3)cc2)CC1` [Example 80, (1,1-Dioxo-1lambda*6*-thiomorpholin-4-yl)-(2-fluoro-4-{2-[4-(4-methyl-piperazin-1-yl)-phenylamino]-benzooxazol-7-yl}-phenyl)-methanone], the IC50 came to 6.2 nM. With `Cc1cc(Nc2nc3cccc(-c4ccc(C[S+](C)[O-])cc4)c3o2)ccc1C(=O)N(C)C` (stereo not drawn) [Example 81, 4-[7-(4-Methanesulfinylmethyl-phenyl)-benzooxazol-2-ylamino]-2,N,N-trimethyl-benzamide], the IC50 amounted to 17 nM. Take `Cc1cc(-c2cccc3nc(Nc4ccc(N5CCN(C)CC5)cc4)oc23)ccc1C(=O)N1CCOCC1` [Example 82, (2-Methyl-4-{2-[4-(4-methyl-piperazin-1-yl)-phenylamino]-benzooxazol-7-yl}-phenyl)-morpholin-4-yl-methanone]: the IC50 was 4.8 nM. Next, `Cc1cc(Nc2nc3cccc(-c4ccc(CC(=O)N5CCS(=O)(=O)CC5)c(F)c4)c3o2)ccc1C(=O)N(C)C` [Example 83, 4-(7-{4-[2-(1,1-Dioxo-1lambda*6*-thiomorpholin-4-yl)-2-oxo-ethyl]-3-fluoro-phenyl}-benzooxazol-2-ylamino)-2,N,N-trimethyl-benzamide]: < 3 nM; `Cc1cc(Nc2nc3cccc(-c4ccc(CN5CCS(=O)(=O)CC5)c(F)c4)c3o2)ccc1C(=O)N(C)C` [Example 84, 4-{7-[4-(1,1-Dioxo-1lambda*6*-thiomorpholin-4-ylmethyl)-3-fluoro-phenyl]-benzooxazol-2-ylamino}-2,N,N-trimethyl-benzamide]: < 3 nM; `Cc1cc(Nc2nc3cccc(-c4ccc(C(=O)N5CCOCC5)c(C)c4)c3o2)ccc1C(=O)N(C)C` [Example 85, 2,N,N-Trimethyl-4-{7-[3-methyl-4-(morpholine-4-carbonyl)-phenyl]-benzooxazol-2-ylamino}-benzamide]: 9.3 nM. The value for `Cc1cc(Nc2nc3cccc(-c4ccc(CN5CCOCC5)c(C(F)(F)F)c4)c3o2)ccc1C(=O)N(C)C` [Example 86, 2,N,N-Trimethyl-4-[7-(4-morpholin-4-ylmethyl-3-trifluoromethyl-phenyl)-benzooxazol-2-ylamino]-benzamide] was 79 nM. Next, `CCN1CCN(c2ccc(Nc3nc4cccc(-c5ccc(CN6CCOCC6)c(F)c5)c4o3)cc2C)CC1` [Example 87, [4-(4-Ethyl-piperazin-1-yl)-3-methyl-phenyl]-[7-(3-fluoro-4-morpholin-4-ylmethyl-phenyl)-benzooxazol-2-yl]-amine]: 4.8 nM.

Values taken from US8629168B2, “Benzoxazoles and oxazolopyridines being useful as janus kinases inhibitors” (priority 2006, dated 2014).
